Molecules are shown by their SMILES.

For `CC(C)(C)c1ccc(CC2CCN(C(=O)C(=O)Nc3ccc4[nH]c(=O)oc4c3)CC2)cc1`, the melting point was found to be 168 °C.
Turning to `Cc1cc(OC(F)(F)C(F)Cl)nc(N)n1` (centres undefined), the melting point was in the range of 73 to 74 °C.
As to `CS(=O)(=O)c1ccc(-c2oc3ccccc3c(=O)c2-c2ccc(F)cc2)cc1`, the melting point lay within 98 to 100 °C.
With `O=c1cc(-c2cccc(OP(=O)(O)O)c2)[nH]c2ccc(N3CCCC3)cc12`, the melting point is > 300 °C.
On to `CCOc1nc(=O)n(C(C)C)c(=O)[nH]1`, for which the melting point lay in the range of 170 to 171 °C.
`CCC(C)OC(=O)C(S)(C#N)C1=NC(C)Cc2cc(OC)c(OC)cc21` (centres undefined) had a melting point of 113 to 114 °C.
The result for `COc1ccc(S(=O)(=O)c2c(SC)nn3c(N)cc(C)nc23)cc1` reads > 230 °C.
`Nc1nc(/C(=N/OCC(=O)N2CCCCC2)C(=O)O)cs1` showed a melting point of 177 °C.
`CC1(NC(=O)C(Br)CBr)COCOC1` (centres undefined) showed a melting point of 115 to 119 °C.
In the case of `COc1cccc(-c2cn(C)cc(-c3cccc(C(F)(F)F)c3)c2=O)c1OC`, the melting point lay in the range of 153 to 155 °C.
In turn, `OCc1ccc(CCc2ccncc2)cc1` displayed a melting point of 163 to 166 °C.
Turning to `Cc1cc2nc(Cl)cc(NCc3c(C)cccc3C)c2[nH]1`, the melting point was 310 to 312 °C.
For `Cc1c(C)c(N2Cc3cc(Cl)c(Cl)cc3C2)c(C)c2c1OC(C)(C)C2c1ccc(F)cc1` (centres undefined), the melting point was 233 to 238 °C.
Turning to `Nc1cc(F)c([N+](=O)[O-])cc1F`, the melting point came to 153 °C.
`CC(C)(Cc1cc2cc(OCc3ccc4occc4n3)ccc2n1Cc1ccc(Cl)cc1)C(=O)O` registered a melting point of 157 °C.
On to `CCCc1nc(C(C)(O)CC)c(C#N)[nH]1` (centres undefined), for which the melting point lay in the range of 157 to 159 °C.
To `N#Cc1ccc(-c2ccc(OC3SCC(O)C(O)C3O)c(F)n2)cn1` (centres undefined) belongs 158 to 162 °C; to `Cc1ccc(NC(=O)c2cnn3c(C(F)(F)F)cc(-c4ccc(C(F)(F)F)cc4)nc23)cc1S(N)(=O)=O`, 297 °C.
As for `CCc1nn2ccc3c(c2c1CC#N)CCO3`, the melting point was 179 to 180 °C.
Compound `C=CCOC(=O)c1ccc(OC(=O)c2ccc(OC)c(C34CC5CC(CC(C5)C3)C4)c2)c(C)c1` came in with a melting point of 138 to 139 °C.
The compound `CC(=S)NCC1CN(c2ccc(N(C)C=O)c(F)c2)C(=O)O1` (centres undefined) came in with a melting point of 105 to 107 °C.
To `CC(=O)c1ccc(-c2ccc(F)cc2)c(O)c1` belongs 152 to 154 °C; to `C/N=C1\N(C)C(=O)C(=Cc2c[nH]c3ccccc23)N1C`, 241 to 242 °C.
To `O=C(c1ccccc1)c1cc2c([N+](=O)[O-])c(O)c(O)cc2oc1=O` belongs 94 to 96 °C.
In turn, `O=C(Cc1ccc(O)cc1)OCCC(c1ccccc1)(c1ccccc1)c1ccccc1` gave a melting point of 136 to 138 °C.
To `CC(=O)N(C)c1cccc(C(=O)C=CN(C)C)c1` belongs 146 to 148 °C; to `CS(=O)(=O)c1ccc(-c2cc(CO[N+](=O)[O-])nn2C2CCCCCC2)cc1`, 119 to 120 °C.
Turning to `COc1ccc(CS(=O)(=O)c2cc(OC)c(OC)c(OC)c2)cc1`, the melting point was in the range of 95 to 97 °C.
To `CCN1CCN(c2c(F)c(N)c3c(=O)c(C(=O)O)cn(C4CC4)c3c2F)CC1` belongs 236 to 237 °C; to `CCCCCCCCC(CC(=O)Nc1ccccc1)CC(C)[N+](=O)[O-]` (centres undefined), 71 to 72 °C.
To `CC(C)(C)c1cc(CCC(=O)OC2CC(C)(C)N(OC3CCCCC3)C(C)(C)C2)cc(-n2nc3ccc(Cl)cc3n2)c1O` belongs 130 to 136 °C; to `N#CCN1C(=O)SC(=Cc2ccc(OCCc3ccccc3)cc2)C1=O`, 155 to 157 °C; to `Cc1oc(-c2ccccc2)nc1CCOc1ccc(CCc2nnn[nH]2)cc1`, 143 to 144 °C.
To `CC(C)c1ccc2c(c1)C(=O)CC21CNC(=O)C1` (centres undefined) belongs 165 to 167 °C.
Turning to `NS(=O)(=O)c1ccsc1C1=NOCCO1`, the melting point is 180 °C.
The result for `C1CC2CNCCNCCNCCNCC(C1)N2` reads 90 to 90.5 °C.
Compound `Cc1c(C)c(N2CCN(c3ccc(F)cc3)CC2)c(C)c2c1OC(C)(C)C2` came in with a melting point of 175 to 177 °C.
The compound `Cn1nc(-c2c(F)cccc2Cl)nc1-c1ccc(Cl)nc1` showed a melting point of 118 to 120 °C.
Consider `Fc1cccnc1N1CCN(Cc2nc3ccccc3[nH]2)CC1`, for which the melting point lay within 210 to 212 °C.
Regarding `CCOC(=O)C1=C(C)NC(c2csc(N)n2)=NC1c1ccc(F)cc1Cl` (centres undefined), the melting point fell in the range of 95 to 110 °C.
`Cc1ccc(NC(=O)c2cccc(C(F)(F)F)c2)cc1-c1ccc2ncncc2c1` gave a melting point of 155 to 156 °C.
Consider `O=C1CCc2cc(Oc3ccccc3)ccc21`, for which the melting point lay within 92 to 93 °C.
`CN1CCCC(O)(c2cccc3[nH]ccc23)C1` (centres undefined) gave a melting point of 250 °C.
`Cc1nc(-c2cc(C)c(OCCCc3cccnc3)c(C)c2)no1` showed a melting point of 46 to 49 °C.
On to `CSc1nc(NC2CCCCC2)c2nsnc2n1`, for which the melting point lay in the range of 134 to 136 °C.
`COc1cc2c(-c3cc4c(Cl)ccnc4[nH]3)cn(CCN3CCC(CCO)CC3)c2cc1OC`: the melting point is 200 °C.
As for `CCCCC(C=O)(CC)CS(=O)(=O)c1ccccc1C(=O)c1ccccc1` (centres undefined), the melting point lay in the range of 135 to 136 °C.
To `COc1ccc(CNC(=S)SC)cc1` belongs 67 to 70 °C.
Take `CCOC(=O)c1c(C(C)(C)O)nc(CC)n1Cc1ccc(-c2ccccc2-c2nnn[nH]2)cc1`: the melting point lay in the range of 166 to 167 °C.
The result for `CC(C=CCOC(=O)c1ccc(C(N)=O)cc1)Oc1ccc(Oc2cnc3cc(Cl)ccc3n2)cc1` (centres undefined) reads 144 to 148 °C; that for `CCOC(=O)C1=C(COCC(O)CCO)NC(C)=C(C(=O)OC)C1c1cccc(Cl)c1Cl` (centres undefined), 86 to 89 °C; that for `Cn1c(C(F)(F)F)cc(=O)n(-c2ccc3snc(C4OCC5(CO4)CO5)c3c2)c1=O` (centres undefined), 203 to 206 °C.
The result for `Fc1ccc2c(NCc3ccccc3)nc(-c3cccnc3)nc2c1` reads 199 to 203 °C.
The result for `COc1ccc(C(C)=C2SCCCS2)cc1C(=O)O` reads 130 to 132 °C; that for `CN(C)c1ncc(-c2cccc(-n3cnc4cc(-c5ccco5)ccc43)c2)cn1`, 170 to 172 °C; that for `Cc1cccc(COCCCC(=O)O)c1`, 53 to 54 °C.
Consider `O=S(=O)(Nc1cccc(CCOCc2nc(-c3ccc(F)cc3)sc2Br)c1)C(F)(F)F`, for which the melting point was in the range of 84 to 85 °C.
For the compound `Oc1nc2ccc3c(c2nc1O)CCCC3`, the melting point is > 300 °C.
`COc1ccc(-n2c(=O)n(C)c(=O)n(CC(C)(C)C)c2=O)cc1` showed a melting point of 134 °C.
`O=C(Nc1ccc(CN2CCOCC2)c2ccccc12)c1cc(F)cc(N2CCOCC2)c1` showed a melting point of 192 to 193 °C.
`COc1ccccc1P(CC(CCCCCCO)CP(c1ccccc1OC)c1ccccc1OC)c1ccccc1OC`: the melting point fell in the range of 47 to 50 °C.
`N[C@@H](C1CCCCC1)C(O)(Cc1ccccc1)Cc1ccccc1` came in with a melting point of 80 to 81 °C.
`COc1cc2cnnc(N3CCC(CCN(C)C(=O)Nc4cccnc4)CC3)c2cc1OC` returned a melting point of 200 to 204 °C.
Compound `CCOC(=O)c1cnc2nc(N3CCN(C)CC3)ncc2c1Cl` displayed a melting point of 173 to 175 °C.

As a reminder, the melting point is the temperature, or range, at which the solid turns liquid.

Source of the values: a melting point compilation (Tetko et al.; mined from patent text by program, amines drawn as free bases though some values may be those of a salt).
